US12616750B2, “Combination therapy utilizing DNA alkylating agents and ATR inhibitors” (Merck Patent GmbH, priority 2018, dated 2026)
Read-outs that look alike come from different tables or passages of the source. Where a SMILES comes first, the peptide text is derived from it. [ ]: non-standard residue; d: D form. The star is where a group is joined. Dolaproine = CO[C@@H]([C@@H]1CCCN1)[C@@H](C)C(=O)O; Dil = CC[C@H](C)[C@H](NC)[C@@H](CC(=O)O)OC; X1 = C[C@@H](N*)[C@@H](O)c1ccccc1; NMeV = CN[C@H](C(=O)O)C(C)C

Key:
Type in all cases: cell-based
HCC-1954 cells [1] = experiment: Dose-matrix combination assay (synergy score, Loewe model)
Procedure: (§1) Dose-matrix combination assays were performed as described above, but performed in opague 384-well plates (2k viable cells/well). Compounds were added using Tecan D300e liquid. Protein solutions were supplemented with 0.3% Tween-20 (final) and diluted to 1 μM. All wells were normalized to the maximum amount of DMSO (maximum 0.4%) or Tween-20 added. […] Luminescence values were normalized to luminescence of non-treated cells and dose-response was fitted using Smart Fit. Synergy scores were calculated using LOEWE synergy model.
(§2) The screening of synergistic drug combinations can be accomplished by performing a dose-matrix assay. Therefore, two drugs are serial diluted and mixed at every dose level, yielding a dose-matrix. The drug combination can be additive if the effects of the combination are identical to the added effects of the single agents. However, the effects of the combination might also be stronger than the activity of the single agents. This scenario is termed synergy, whereas weaker combination effects compared to the single agents are termed antagonism. A dose-matrix assay is depicted schematically in FIG. 2 which illustrates the outcomes of a dose-matrix assay: additivity, antagonism and synergy.
(§3) The screening was conducted by serial diluting the duocarmycin derivative DUBA (10) and the DDR inhibitors. […] DUBA was combined in a dose-matrix assay with hycanthone. The cell viability was measured after 6 d of treatment using the CellTiter-Glo assay kit. The signals of the cell viability assay were normalized to untreated cells and fitted. […] By subtracting the modeled data from the fitted data, an excess matrix was generated. The excess matrix can be considered as a visualization of the differences between model and actual data which also highlights spots of either high synergy or antagonism. The quantification of the combination effects, however, was performed by calculating synergy scores. […] Besides synergy score, the potency of the drugs in monotherapy was obtained from these experiments. […] The potency was obtained from this dose-response curve.
(§4) The scattering of S was determined in a sham control experiment to define a cutoff for classifying a combination as truly synergistic or antagonistic. Thus seven different compounds were combined with itself on four different cell lines and the three-σ confidence interval was calculated around the mean of the measurement. […] For the sake of convenience, the cutoff was set to a value of ±1.
(§5) Synergy scores (S) were obtained from the combination experiments that indicated additivity […] if model and actual response were equal. […] The magnitude of the score determined the extent of the combination effects.

MDA-MB-468 cells = experiment: as above; details: combination with DUBA; MDA-MB-468, 6 d; S ± SD; cutoff ±1
Procedure: as §1, §2, §3, §4, §5

HCC-1954 cells [2] = experiment: Cytotoxicity (cell viability, CellTiter-Glo, 6 d); details: Homo sapiens, HCC1954, HCC-1954
Procedure: as §1
After 6 d of treatment, CellTiter-Glo luminescent assay was performed and the luminescence was read on Envision Reader. The results were analyzed using GeneData Screener as described before.

[3] = combination with ADC αHER2-2, HCC-1954
[4] = combination with DUBA, HCC-1954, 6 d, S ± SD, cutoff ±1
[5] = combination with DUBA, cell line not given (screen on HCC-1954 or MDA-MB-468)
[6] = combination with AZD6738, HCC-1954, 6 d

| SMILES | Synergy score S (HCC-1954 cells [1]; [4]) | Synergy score S (MDA-MB-468 cells) | other results |
| --- | --- | --- | --- |
| C[C@@H]1COCCN1c1cc(C2(S(C)(=O)=O)CC2)nc(-c2cccc3[nH]ccc23)n1 [AZ20] | 5.1±0.5 |  | Synergy score S (HCC-1954 cells [1]; [3]): 5.8±0.4 |
| C=CCn1c(=O)c2cnc(Nc3ccc(N4CCN(C)CC4)cc3)nc2n1-c1cccc(C(C)(C)O)n1 [AZD1775] | 0.8±0.1 | 0.1±0.4 |  |
| NC(=O)Nc1cc(-c2cccc(F)c2)sc1C(=O)N[C@H]1CCCNC1 [AZD7762] | 3.6±0.4 | 2.6+0.2 |  |
| S=C(NCc1ccc2c(c1)OCO2)N1CCN(c2ncnc3c2oc2ccccc23)CC1 [Amuvatinib] |  |  | Synergy score S (HCC-1954 cells [1]; [5]): did not yield a synergy score exceeding the cutoff |
| C[C@@H]1COCCN1c1cc(C2(S(C)(=O)=O)CC2)c2ccnc(-c3ccn[nH]3)c2n1 [BAY286] | 9.5±0.8 |  | Synergy score S (HCC-1954 cells [1]; [3]): 10.4±0.2; IC50 (HCC-1954 cells [2]; ATRi alone, mean ± SD, read-out: Cytotoxicity IC50): 80 ± 20 nM |
| Cc1c(N)nc([C@H](CC(N)=O)NC[C@H](N)C(N)=O)nc1C(=O)N[C@H](C(=O)N[C@H](C)[C@@H](O)[C@H](C)C(=O)NC(C(=O)NCCc1nc(-c2nc(C(=O)NCCCNCCCCN)cs2)cs1)[C@@H](C)O)[C@@H](O[C@@H]1O[C@@H](CO)[C@@H](O)[C@H](O)[C@@H]1O[C@H]1O[C@H](CO)[C@@H](O)[C@H](OC(N)=O)[C@@H]1O)c1cnc[nH]1 (stereo partly drawn) [Bleomycin A5] | 1.6±1.0 | 0.4+1.0 |  |
| COCC(=O)NC/C=C/c1ccc2ncnc(Nc3ccc(Oc4ccc(C)nc4)c(C)c3)c2c1 [CP724714] | additive effects | additive effects |  |
| N#C/C(C(=O)c1ccc(Cl)cc1Cl)=C1/NC(=O)c2ccc(Cl)cc2N1 [Ciliobrevin D] | 1.2+0.6 | 0.2±0.5 |  |
| COc1cc2cc(c1Cl)N(C)C(=O)C[C@H](OC(=O)[C@H](C)N(C)C(=O)CCS)[C@]1(C)O[C@H]1[C@H](C)[C@@H]1C[C@@](O)(NC(=O)O1)[C@H](OC)/C=C/C=C(\C)C2 [DM1] |  |  | Synergy score S (HCC-1954 cells [1]): 2.8 ± 0.5 |
| CCN(CC)CCNc1ccc(CO)c2sc3ccccc3c(=O)c12 [Hycanthone] |  |  | Synergy score S (HCC-1954 cells [1]; [5]): 0.1 |
| O=c1cc(-c2cccc3c2Sc2ccccc2S3)oc(N2CCOCC2)c1 [KU-55933] | 2.1±1.2 |  |  |
| Cc1cnc(NC(=O)Nc2cc(Br)c(C)cc2OC[C@@H]2CNCCO2)cn1 [LY2603618] | 4.1+0.3 | 4.4+1.7 |  |
| Nc1nc(OCc2cc(Br)cs2)c2[nH]cnc2n1 [Lomeguatrib] | 0.1±0.3 | 2.8±2.3 |  |
| CC[C@H](C)[C@@H]([C@@H](CC(=O)N1CCC[C@H]1[C@H](OC)[C@@H](C)C(=O)N[C@H](C)[C@@H](O)c1ccccc1)OC)N(C)C(=O)[C@@H](NC(=O)[C@@H](NC)C(C)C)C(C)C [MMAE] (H-[NMeV]V[Dil][Dolaproine]-X1) |  |  | Synergy score S (HCC-1954 cells [1]; [6]): 2.2+0.1 |
| O=c1cc(N2CCOCC2)oc2c(-c3cccc4c3sc3ccccc34)cccc12 [NU7441] |  |  | Synergy score S (HCC-1954 cells [1]; [5]): did not yield a synergy score exceeding the cutoff |
| O=C(c1cc(Cc2n[nH]c(=O)c3ccccc23)ccc1F)N1CCN(C(=O)C2CC2)CC1 [Olaparib] | 0.6+0.4 | 1.1+0.1 |  |
| Nc1nc(NC2CC2)cc(-c2cccc(Cl)c2Cl)n1 [TH588] | −0.2±0.3 | −0.4+0.3 |  |
| C=CCNC1=C2C[C@@H](C)C[C@H](OC)[C@H](O)[C@@H](C)/C=C(\C)[C@H](OC(N)=O)[C@@H](OC)/C=C\C=C(/C)C(=O)NC(=CC1=O)C2=O [Tanespimycin] |  |  | Synergy score S (HCC-1954 cells [1]): 1.4±0.4 |
| COc1cc2cc(C(=O)N3C[C@@H](CCl)c4c3cc(O)c3ccccc43)[nH]c2c(OC)c1OC [compound 24] |  |  | Synergy score S (HCC-1954 cells [1]; [6]): 6.1 ± 1.2; Synergy score S (HCC-1954 cells [1]; combination with AZD6738, HCC-1954, 6 d, listed as CBI-TMI (24)): 6.1±1.2; IC50 (HCC-1954 cells [2]; duocarmycin variant alone, mean ± SD or mean (individual values), read-out: IC50): 24 ± 32 nM |
